Data on seven compounds can be found in patent US9695240B2, “Anthracycline derivative conjugates, process for their preparation and their use as antitumor compounds” (Genentech, Inc., priority 2008, dated 2017).

Structures are written as SMILES.

A short description of data set [1]: Stability of the conjugate in ammonium acetate buffer, HPLC. In kind it is physicochemical. The conditions noted are these: for % release of Compound IIA from the conjugate: 37° C., after four hours incubation. As for the experimental part:
Stability of the conjugates was studied using HPLC analysis. The conjugate was incubated in ammonium acetate buffers at pH 4 and 5.2 at 37° C. Each solution was then taken periodically and applied to an HPLC column using a method reported above. The amount of material released from the conjugate was determined and expressed as percent of released material.
To 0.5 mg of conjugate, ammonium acetate 5 mM pH=5.2 buffer solution (200 mL) was added. The solution was warmed at 37° C. and sample was taken periodically and analyzed by HPLC (method 2). Results are expressed as % of released material (8S,10S)-6,8,11-trihydroxy-8-(hydroxyacetyl)-1-methoxy-10-{[(1S,3R,4aS,9S,9aR,10aS)-9-methoxy-1-methyloctahydro-1H-pyrano[4′,3′:4,5][1,3]oxazolo[2,3-c][1,4]oxazin-3-yl]oxy}-7,8,9,10-tetrahydrotetracene-5,12-dione (Compound IIA) from the conjugate. […]

The next data set has as its system tumor models. The conditions noted are these: cited from earlier work.
The test system of the next data set is SK-BR-3 cells. Nature of the data set: CellTiter-Glo in vitro cell proliferation assay, SK-BR-3. Type of data set: cell-based. The conditions noted are these: continuous exposure, 3 days. The text has this: (§1) Cell-based in vitro assays may be used to measure viability, i.e. proliferation (IC50), cytotoxicity (EC50), and induction of apoptosis (caspase activation) of the ADC. The CellTiter-Glo® Luminescent Cell Viability Assay is a commercially available (Promega Corp., Madison, Wis.), homogeneous assay method based on the recombinant expression of Coleoptera luciferase (U.S. Pat. Nos. 5,583,024; 5,674,713; 5,700,670). This cell proliferation assay determines the number of viable cells in culture based on quantitation of the ATP present, an indicator of metabolically active cells (Crouch et al (1993) J. Immunol. Meth. 160:81-88; U.S. Pat. No. 6,602,677). The CellTiter-Glo® Assay is conducted in 96 well format, making it amenable to automated high-throughput screening (HTS) (Cree et al (1995) AntiCancer Drugs 6:398-404). The homogeneous assay procedure involves adding the single reagent (CellTiter-Glo® Reagent) directly to cells cultured in serum-supplemented medium. Cell washing, removal of medium and multiple pipetting steps are not required. The system detects as few as 15 cells/well in a 384-well format in 10 minutes after adding reagent and mixing.
(§2) The in vitro potency of antibody-drug conjugates was measured by a cell proliferation assay (FIGS. 8-29). The CellTiter-Glo® Luminescent Cell Viability Assay is a commercially available (Promega Corp., Madison, Wis.), homogeneous assay method based on the recombinant expression of Coleoptera luciferase (U.S. Pat. Nos. 5,583,024; 5674,713; 5,700,670). This assay determines the number of viable cells in culture based on quantitation of the ATP present, an indicator of metabolically active cells (Crouch et al (1993) J. Immunol. Meth. 160:81-88; U.S. Pat. No. 6,602,677). The CellTiter-Glo® Assay was conducted in 96 well format, making it amenable to automated high-throughput screening (HTS) (Cree et al (1995) AntiCancer Drugs 6:398-404). The homogeneous assay procedure involves adding the single reagent (CellTiter-Glo® Reagent) directly to cells cultured in serum-supplemented medium.
(§3) The homogeneous “add-mix-measure” format results in cell lysis and generation of a luminescent signal proportional to the amount of ATP present. The substrate, Beetle Luciferin, is oxidatively decarboxylated by recombinant firefly luciferase with concomitant conversion of ATP to AMP and generation of photons. Viable cells are reflected in relative luminescence units (RLU). Data can be recorded by luminometer or CCD camera imaging device. The luminescence output is presented as RLU, measured over time. Alternatively, photons from luminescence can be counted in a scintillation counter in the presence of a scintillant. The light units can be represented then as CPS—counts per second.
(§4) Efficacy of ADC were measured by a cell viability assay employing the following protocol, adapted from CellTiter Glo Luminescent Cell Viability Assay, Promega Corp. Technical Bulletin TB288 and Mendoza et al (2002) Cancer Res. 62:5485-5488: • 1. An aliquot of 50 μl of cell culture containing about 1000 or more cells, including: HER2-expressing and CD22-expressing cells, in medium was deposited in each well of a 96-well, opaque-walled, clear bottom plate. • 2. ADC (50 μl) was added to triplicate experimental wells to final concentration of 10 μg/mL, with “no ADC” control wells receiving medium alone, and incubated for 3 or more days. • 3. The plates were equilibrated to room temperature for approximately 30 minutes. • 4. CellTiter-Glo Reagent (100 μl) was added. • 5. The contents were mixed for 2 minutes on an orbital shaker to induce cell lysis. • 6. The plate was incubated at room temperature for 10 minutes to stabilize the luminescence signal. • 7. Luminescence was recorded and reported in graphs as RLU=relative luminescence units.
(Cellular ATP, detected with luciferase, serves as a proxy for viable cell number.)

A further data set has as its system MCF7 cells. The data set is described as follows: CellTiter-Glo in vitro cell proliferation assay, MCF7. Type of data set: cell-based, human. The conditions noted are these: continuous exposure, 3 days.
Source text: as §1, §2, §3, §4

The test system of data set [2] is doxorubicin-resistant (DoxRes) HER2 cells. The data set is described as follows: CellTiter-Glo in vitro cell proliferation assay, doxorubicin-resistant HER2. The conditions noted are these: continuous exposure, 3 days. Type of data set: cell-based.
Source text: as §1, §2, §3, §4

A further data set relates to BT-474 cells. Nature of the data set: CellTiter-Glo in vitro cell proliferation assay, BT-474. The conditions noted are these: continuous exposure, 3 days. In kind it is cell-based.
Source text: as §1, §2, §3, §4

For the compound `CNC(=O)COC1(OCC(=O)[C@]2(O)Cc3c(O)c4c(c(O)c3[C@@H](O[C@H]3C[C@H]5[C@H](O[C@@H]6[C@@H](OC)OCCN65)[C@H](C)O3)C2)C(=O)c2c(OC)cccc2C4=O)CCCCC1` [Compound 2, N-methyl-2-[(1-{2-oxo-2-[(2S,4S)-2,5,12-trihydroxy-7-methoxy-4-{[(1S,3R,4aS,9S,9aR,10aS)-9-methoxy-1-methyloctahydro-1H-pyrano[4′,3′:4,5][1,3]oxazolo[2,3-c][1,4]oxazin-3-yl]oxy}-6,11-dioxo-1,2,3,4,6,11-hexahydrotetracen-2-yl]ethoxy}cyclohexyl)oxy]acetamide], in data set [1] (pH 5.2, FIG. 1), the “stability at pH 5.2, release of compound of formula (IIA) over time, in words” value was “increased release of the free compound of the formula (IIA)”.
In the case of `COc1cccc2c1C(=O)c1c(O)c3c(c(O)c1C2=O)C[C@@](O)(C(=O)CO)C[C@@H]3O[C@H]1C[C@H](N2CCO[C@H](OC)C2)[C@H](O)[C@H](C)O1` [nemorubicin, (8S,10S)-6,8,11-trihydroxy-10-((2R,4S,5S,6S)-5-hydroxy-4-((S)-2-methoxymorpholino)-6-methyltetrahydro-2H-pyran-2-yloxy)-8-(2-hydroxyacetyl)-1-methoxy-7,8,9,10-tetrahydrotetracene-5,12-dione], in the data set with tumor models, the “antitumor activity in in vivo tumor models, in words” value was “promising antitumor activity on experimental murine tumors”.
With `COc1cccc2c1C(=O)c1c(O)c3c(c(O)c1C2=O)C[C@@](O)(C(=O)COC1CCCC(COCC(=O)NCCN2C(=O)C=CC2=O)O1)C[C@@H]3O[C@H]1C[C@H]2[C@H](O[C@@H]3[C@@H](OC)OCCN32)[C@H](C)O1` (some centres unmarked) [Compound 51], the “SK-BR-3 in vitro cell viability at 3 days, anti-proliferative activity in words” value (“SK-BR-3 in vitro cell viability” below) in the data set with SK-BR-3 cells is given as “minimal anti-proliferative activity”. In addition, the “MCF7 in vitro cell viability at 3 days, anti-proliferative activity in words” value (from here on “MCF7 in vitro cell viability at 3 days”) in the data set with MCF7 cells was “inactive”. Moreover, the “DoxRes HER2 in vitro cell viability at 3 days, anti-proliferative activity in words” value (“DoxRes HER2 in vitro cell viability” below) in data set [2] is on record as “minimal anti-proliferative activity”. The “BT-474 in vitro cell viability at 3 days, anti-proliferative activity in words” value (from here on “BT-474 in vitro cell viability at 3 days”) in the data set on BT-474 cells was “inactive”.
As for `COc1cccc2c1C(=O)c1c(O)c3c(c(O)c1C2=O)C[C@@](O)(/C(CO)=N/NC(=O)CCSSC[C@H](NC(C)=O)C(=O)O)C[C@@H]3O[C@H]1C[C@H]2[C@H](O[C@@H]3[C@@H](OC)OCCN32)[C@H](C)O1` [Compound 12, N-acetyl-3-({3-[(2E)-2-{2-hydroxy-1-[(2S,4S)-2,5,12-trihydroxy-7-methoxy-4-{[(1S,3R,4aS,9S,9aR,10aS)-9-methoxy-1-methyloctahydro-1H-pyrano[4′,3′:4,5][1,3]oxazolo[2,3-c][1,4]oxazin-3-yl]oxy}-6,11-dioxo-1,2,3,4,6,11-hexahydrotetracen-2-yl]ethylidene}hydrazinyl]-3-oxopropyl}disulfanyl)-L-alanine], the “% release of Compound IIA from the conjugate” value worked out at 100% in data set [1] (pH 4.2 buffer solution) and 90% in data set [1] (pH 5.2 buffer solution).
Consider `COc1cccc2c1C(=O)c1c(O)c3c(c(O)c1C2=O)C[C@@](O)(C(=O)COC1CCCC(COCC(=O)ON2C(=O)CCC2=O)O1)C[C@@H]3O[C@H]1C[C@H]2[C@H](O[C@@H]3[C@@H](OC)OCCN32)[C@H](C)O1` (stereo partly drawn) [Compound 50, 1-({[(6-{2-oxo-2-[(2S,4S)-2,5,12-trihydroxy-7-methoxy-4-{[(1S,3R,4aS,9S,9aR,10aS)-9-methoxy-1-methyloctahydro-1H-pyrano[4′,3′:4,5][1,3]oxazolo[2,3-c][1,4]oxazin-3-yl]oxy}-6,11-dioxo-1,2,3,4,6,11-hexahydrotetracen-2-yl]ethoxy}tetrahydro-2H-pyran-2-yl)methoxy]acetyl}oxy)pyrrolidine-2,5-dione], for which, in the data set with SK-BR-3 cells, the “SK-BR-3 in vitro cell viability” value is recorded as “minimal anti-proliferative activity”. Further, the “MCF7 in vitro cell viability at 3 days” value with MCF7 cells was “inactive”. Also, the “DoxRes HER2 in vitro cell viability” value in data set [2] was “minimal anti-proliferative activity”. Besides, the “BT-474 in vitro cell viability at 3 days” value with BT-474 cells is “inactive”.
`COc1cccc2c1C(=O)c1c(O)c3c(c(O)c1C2=O)C[C@@](O)(/C(CO)=N/NC(=O)CCSSc1ccccn1)C[C@@H]3O[C@H]1C[C@H]2[C@H](O[C@@H]3[C@@H](OC)OCCN32)[C@H](C)O1` [Compound 53, N′-{(1E)-2-hydroxy-1-[(2S,4S)-2,5,12-trihydroxy-7-methoxy-4-{[(1S,3R,4aS,9S,9aR,10aS)-9-methoxy-1-methyloctahydro-1H-pyrano[4′,3′:4,5][1,3]oxazolo[2,3-c][1,4]oxazin-3-yl]oxy}-6,11-dioxo-1,2,3,4,6,11-hexahydrotetracen-2-yl]ethylidene}-3-(pyridin-2-yldisulfanyl)propanehydrazide]: the “SK-BR-3 in vitro cell viability” value in the data set with SK-BR-3 cells is listed as “less potent than free Ant”. The “MCF7 in vitro cell viability at 3 days” value with MCF7 cells is listed as “minial anti-proliferative activity”. The “DoxRes HER2 in vitro cell viability” value in data set [2] is given as “less potent than free Ant”. Further, the “BT-474 in vitro cell viability at 3 days” value in the data set on BT-474 cells is “minimal anti-proliferative activity”.
As to `COc1cccc2c1C(=O)c1c(O)c3c(c(O)c1C2=O)C[C@@](O)(/C(CO)=N/NC(=O)CCCCCN1C(=O)C=CC1=O)C[C@@H]3O[C@H]1C[C@H]2[C@H](O[C@@H]3[C@@H](OC)OCCN32)[C@H](C)O1` [Compound 52, 6-(2,5-dioxo-2,5-dihydro-1H-pyrrol-1-yl)-N′-{(1E)-2-hydroxy-1-[(2S,4S)-2,5,12-trihydroxy-7-methoxy-4-{[(1S,3R,4aS,9S,9aR,10aS)-9-methoxy-1-methyloctahydro-1H-pyrano[4′,3′:4,5][1,3]oxazolo[2,3-c][1,4]oxazin-3-yl]oxy}-6,11-dioxo-1,2,3,4,6,11-hexahydrotetracen-2-yl]ethylidene}hexanehydrazide], the “SK-BR-3 in vitro cell viability” value in the data set with SK-BR-3 cells is “less potent than free Ant”. Further, the “MCF7 in vitro cell viability at 3 days” value in the data set with MCF7 cells is reported as “minial anti-proliferative activity”. The “DoxRes HER2 in vitro cell viability” value in data set [2] is on record as “less potent than free Ant”. Also, the “BT-474 in vitro cell viability at 3 days” value in the data set on BT-474 cells is given as “minimal anti-proliferative activity”.
